From article PMC5908784, “Extracellular loops 2 and 3 of the calcitonin receptor selectively modify agonist binding and efficacy” (Biochemical Pharmacology, 2018)
Changes are numbered by the printed parent chain. Read-outs that look alike come from different tables or passages of the source. Where a SMILES comes first, the peptide text is derived from it. Bridges are numbered along the chain shown (N, C = ends).

Tests used:
Experiment in all cases: cAMP accumulation
Type in all cases: cell-based
hCTR V283A = target: T1, hCTR V283A (Homo sapiens, UniProt P30988, V283A); details: mean ± S.E.M.; for Emax: cAMP maximal response, SEM; for EC50: cAMP, CV1-FlpIn cells, 30 min, IBMX
T1 construct: expressed in transfected cells
T1 sequence (P30988 25-474 V283A): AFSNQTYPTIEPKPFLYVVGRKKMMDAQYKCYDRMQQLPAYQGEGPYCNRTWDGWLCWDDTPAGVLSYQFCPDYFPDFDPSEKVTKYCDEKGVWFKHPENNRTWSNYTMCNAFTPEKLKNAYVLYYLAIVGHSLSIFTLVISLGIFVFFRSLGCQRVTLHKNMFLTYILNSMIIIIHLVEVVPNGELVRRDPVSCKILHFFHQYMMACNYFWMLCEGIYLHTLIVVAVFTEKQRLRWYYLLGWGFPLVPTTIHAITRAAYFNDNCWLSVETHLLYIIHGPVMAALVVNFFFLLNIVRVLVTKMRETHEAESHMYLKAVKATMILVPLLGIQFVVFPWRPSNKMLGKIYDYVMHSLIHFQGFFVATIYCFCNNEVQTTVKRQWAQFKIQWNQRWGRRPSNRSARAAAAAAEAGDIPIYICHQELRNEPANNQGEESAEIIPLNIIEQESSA
Procedure, shortened: (§1)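 For each mutant, cAMP generated during a 30 min ligand exposure with IBMX is reported as a fraction of the 100 μM forskolin maximum. Cells were ethanol-extracted and dried at room temperature prior to measurement.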

hCTR WT = target: T2, hCTR WT (Homo sapiens, UniProt P30988); details: mean ± S.E.M.; for Emax: cAMP maximal response, SEM; for EC50: cAMP, CV1-FlpIn cells, 30 min, IBMX
T2 construct: expressed in transfected cells
T2 sequence (P30988 25-474): T1 sequence (P30988 25-474 V283A) with A259V
Procedure, shortened: as §1

hCTR I279A = target: T3, hCTR I279A (Homo sapiens, UniProt P30988, I279A); details: mean ± S.E.M.; for Emax: cAMP maximal response, SEM; for EC50: cAMP, CV1-FlpIn cells, 30 min, IBMX
T3 construct: expressed in transfected cells
T3 sequence (P30988 25-474 I279A): T1 sequence (P30988 25-474 V283A) with I255A, A259V
Procedure, shortened: as §1

hCTR H296A = target: T4, hCTR H296A (Homo sapiens, UniProt P30988, H296A); details: mean ± S.E.M.; for Emax: cAMP maximal response, SEM; for EC50: cAMP, CV1-FlpIn cells, 30 min, IBMX
T4 construct: c-Myc (N); expressed in transfected cells
T4 sequence (P30988 25-474 H296A): T1 sequence (P30988 25-474 V283A) with A259V, H272A
Procedure, shortened: as §1

hCTR R362A = target: T5, hCTR R362A (Homo sapiens, UniProt P30988, R362A); details: for Emax: SEM, read-out: Emax (% WT); for EC50: cAMP, CV1-FlpIn cells, 30 min, IBMX
T5 construct: expressed in transfected cells
T5 sequence (P30988 25-474 R362A): T1 sequence (P30988 25-474 V283A) with A259V, R338A
Procedure, shortened: as §1

[1] = R362A, cAMP maximal response, mean ± S.E.M.

Row | EC50 (hCTR V283A) [nM] | EC50 (hCTR WT) [nM] | EC50 (hCTR I279A) [nM] | EC50 (hCTR H296A) [nM] | Emax (hCTR R362A; [1]) [%] | EC50 (hCTR R362A; R362A, mean ± S.E.M.) [nM] | Structure (SMILES) | Emax (hCTR V283A) [%] | Emax (hCTR WT) [%] | Emax (hCTR I279A) [%] | Emax (hCTR H296A) [%] | Emax (hCTR R362A) [%]
1 | 12.9 | 11 | 3.39 | 14.1 | 51 ± 9 | 17.8 | CC(C)C[C@H](NC(=O)CNC(=O)[C@H](C)NC(=O)[C@H](CC(C)C)NC(=O)[C@H](CCCNC(=N)N)NC(=O)[C@H](Cc1cnc[nH]1)NC(=O)[C@@H](NC(=O)[C@@H](NC(=O)[C@@H]1CSSC[C@H](NC(=O)[C@H](C)N)C(=O)N[C@@H](CC(=O)O)C(=O)N[C@@H]([C@@H](C)O)C(=O)N[C@@H](C)C(=O)N[C@@H]([C@@H](C)O)C(=O)N1)C(C)C)[C@@H](C)O)C(=O)N[C@@H](CC(C)C)C(=O)N[C@@H](CO)C(=O)N[C@@H](CCCNC(=N)N)C(=O)N[C@@H](CO)C(=O)NCC(=O)NCC(=O)N[C@H](C(=O)N[C@H](C(=O)N[C@@H](CCCCN)C(=O)N[C@@H](CC(N)=O)C(=O)N[C@@H](CC(N)=O)C(=O)N[C@@H](Cc1ccccc1)C(=O)N[C@H](C(=O)N1CCC[C@H]1C(=O)N[C@H](C(=O)N[C@@H](CC(N)=O)C(=O)N[C@H](C(=O)NCC(=O)N[C@@H](CO)C(=O)N[C@@H](CCCCN)C(=O)N[C@@H](C)C(=O)N[C@@H](Cc1ccccc1)C(N)=O)C(C)C)[C@@H](C)O)C(C)C)C(C)C)C(C)C [hαCGRP] | 130 ± 19 | 100 ± 7 | 139 ± 18 | 106 ± 18 | 
2 | 0.0316 | 0.0398 | 0.0398 | 0.0316 | 138 ± 9 | 0.182 | CSCC[C@H](NC(=O)CNC(=O)[C@H](CO)NC(=O)[C@H](Cc1ccccc1)NC(=O)[C@H](CCCNC(=N)N)NC(=O)[C@H](Cc1c[nH]cn1)NC(=O)[C@H](Cc1ccccc1)NC(=O)[C@H](CC(N)=O)NC(=O)[C@H](CC(N)=O)NC(=O)[C@H](CC(C)C)NC(=O)[C@H](CC(N)=O)NC(=O)[C@H](CCCNC(=N)N)NC(=O)[C@H](Cc1c[nH]c2ccccc12)NC(=O)[C@H](Cc1ccc(O)cc1)NC(=O)[C@H](C)NC(=O)[C@H](CO)NC(=O)[C@H](CC(C)C)NC(=O)[C@@H](NC(=O)[C@@H]1CSSC[C@H](N)C(=O)N[C@@H](CO)C(=O)N[C@@H](CC(N)=O)C(=O)N[C@@H](CC(C)C)C(=O)N[C@@H](CO)C(=O)N[C@@H]([C@@H](C)O)C(=O)N1)C(C)C)C(=O)NCC(=O)N[C@@H](Cc1ccccc1)C(=O)NCC(=O)N1CCC[C@H]1C(=O)N[C@@H](CCC(=O)O)C(=O)N[C@H](C(=O)N1CCC[C@H]1C(N)=O)[C@@H](C)O [pCT] (H-CSNLSTCVLSAYWRNLNNFHRFSGMGFGPETP-NH2; disulfide 1-7) | 107 ± 9 | 100 ± 2 | 97 ± 4 | 96 ± 8 | 
3 |  |  |  |  |  |  | CC(C)C[C@H](NC(=O)[C@H](CCCCN)NC(=O)CNC(=O)[C@H](CC(C)C)NC(=O)[C@@H](NC(=O)[C@@H]1CSSC[C@H](N)C(=O)N[C@@H](CO)C(=O)N[C@@H](CC(N)=O)C(=O)N[C@@H](CC(C)C)C(=O)N[C@@H](CO)C(=O)N[C@@H]([C@@H](C)O)C(=O)N1)C(C)C)C(=O)N[C@@H](CO)C(=O)N[C@@H](CCC(N)=O)C(=O)N[C@@H](CCC(=O)O)C(=O)N[C@@H](CC(C)C)C(=O)N[C@@H](Cc1c[nH]cn1)C(=O)N[C@@H](CCCCN)C(=O)N[C@@H](CC(C)C)C(=O)N[C@@H](CCC(N)=O)C(=O)N[C@H](C(=O)N[C@@H](Cc1ccc(O)cc1)C(=O)N1CCC[C@H]1C(=O)N[C@@H](CCCNC(=N)N)C(=O)N[C@H](C(=O)N[C@@H](CC(N)=O)C(=O)N[C@H](C(=O)NCC(=O)N[C@@H](CO)C(=O)NCC(=O)N[C@H](C(=O)N1CCC[C@H]1C(N)=O)[C@@H](C)O)[C@@H](C)O)[C@@H](C)O)[C@@H](C)O [sCT] | 116 ± 12 | 100 ± 1 | 90 ± 6 | 86 ± 5 | 95 ± 4
4 |  |  |  |  |  |  | CC[C@H](C)[C@H](NC(=O)[C@H](C)NC(=O)[C@@H](NC(=O)[C@H](CCC(N)=O)NC(=O)[C@@H]1CCCN1C(=O)[C@H](Cc1ccccc1)NC(=O)[C@@H](NC(=O)[C@H](Cc1c[nH]cn1)NC(=O)[C@H](Cc1ccccc1)NC(=O)[C@H](CCCCN)NC(=O)[C@H](CC(N)=O)NC(=O)[C@H](Cc1ccccc1)NC(=O)[C@H](CC(=O)O)NC(=O)[C@H](CCC(N)=O)NC(=O)[C@@H](NC(=O)[C@H](Cc1ccc(O)cc1)NC(=O)[C@@H](NC(=O)CNC(=O)[C@H](CC(C)C)NC(=O)[C@H](CCSC)NC(=O)[C@@H]1CSSC[C@H](N)C(=O)NCC(=O)N[C@@H](CC(N)=O)C(=O)N[C@@H](CC(C)C)C(=O)N[C@@H](CO)C(=O)N[C@@H]([C@@H](C)O)C(=O)N1)[C@@H](C)O)[C@@H](C)O)[C@@H](C)O)[C@@H](C)O)C(=O)NCC(=O)N[C@H](C(=O)NCC(=O)N[C@@H](C)C(=O)N1CCC[C@H]1C(N)=O)C(C)C [hCT] | 90 ± 7 | 100 ± 2 | 91 ± 4 | 87 ± 4 | 125 ± 9
5 |  |  |  |  |  |  | CC(C)C[C@H](NC(=O)[C@H](CC(N)=O)NC(=O)[C@H](CC(N)=O)NC(=O)[C@H](CO)NC(=O)[C@H](CO)NC(=O)[C@H](CCCNC(=N)N)NC(=O)[C@@H](NC(=O)[C@H](CC(C)C)NC(=O)[C@H](Cc1ccccc1)NC(=O)[C@H](CC(N)=O)NC(=O)[C@H](C)NC(=O)[C@H](CC(C)C)NC(=O)[C@H](CCCNC(=N)N)NC(=O)[C@H](CCC(N)=O)NC(=O)[C@@H](NC(=O)[C@H](C)NC(=O)[C@@H]1CSSC[C@H](NC(=O)[C@@H](N)CCCCN)C(=O)N[C@@H](CC(N)=O)C(=O)N[C@@H]([C@@H](C)O)C(=O)N[C@@H](C)C(=O)N[C@@H]([C@@H](C)O)C(=O)N1)[C@@H](C)O)C(C)C)C(=O)NCC(=O)N1CCC[C@H]1C(=O)N[C@H](C(=O)N[C@@H](CC(C)C)C(=O)N1CCC[C@H]1C(=O)N1CCC[C@H]1C(=O)N[C@H](C(=O)N[C@@H](CC(N)=O)C(=O)N[C@H](C(=O)NCC(=O)N[C@@H](CO)C(=O)N[C@@H](CC(N)=O)C(=O)N[C@H](C(=O)N[C@@H](Cc1ccc(O)cc1)C(N)=O)[C@@H](C)O)C(C)C)[C@@H](C)O)C(C)C [rAmy] | 77 ± 10 | 100 ± 4 | 81 ± 9 | 107 ± 18 | 88 ± 12
